Experimental data taken from patent US12258397B2 (Seattle Children's Hospital, priority 2014, dated 2025).
Several values for one entry are separate records, joined by “and”; a condition that tells them apart may be missing. Equal values may be shown once.

Key:
H9 cells [1] = test: Multiplexed gene integration of three fluorescent protein transposons with MTX step selection, flow cytometry; type: cell-based, human; details: for cells expressing triple transgenes: 200 nM MTX 1 week
Experimental: (§1) H9 cells were cultured in DMEM with 10% FBS. The optimized nucleofection protocol for H9 cells (Lonza) was followed (program X-001, Nucleofector Kit V). Per nucleofection, 1×10^6 cells were used with varying amounts of MC DNA. Cells were grown for a week after nucleofection to achieve stable transfection.
(§2) Live cells were selected based on propidium iodide exclusion by adding propidium iodide in the flow cytometry buffer to 2 μg/ml. Flow cytometry analysis was carried out on a MACSQuant Analyzer (Miltenyi Biotec) and LSRII (BD Biosciences). Collected data was analyzed with FlowJo software. Appropriate negative controls (untransfected H9 cells with and without propidium iodide staining, as well as cells transfected with single genes for GFP, BFP, and mCherry) were used for compensation and gating. A Becton Dickinson FACSAria II was used for cell sorting. Part of flow cytometry work was conducted at the UW Immunology Flow Cytometry Facility.
H9 cells were nucleofected with three minicircles containing three different reporter genes (maxGFP, mCherry, and BFP) in transposon cassettes and the SB100X transposase minicircle. Stably-transduced cells were then selected for 7 days with 200 nM and cell population assessed by flow cytometry analysis. […] Initial transfection efficiency assessed 24 hours after nucleofection, was 68% (FIG. 6A). The stably transduced population was 37±1.4%, reflecting 54% integration efficiency. Of this population, 19±0.6% expressed two or three different fluorescent proteins. […] Cell viability rebounded to ˜70% during the second round of selection due to further selection for overexpression of the DHFRdm gene.

H9 cells [2] = test: Transposon copy number by qPCR in MTX-selected H9 cells; type: cell-based, human
Experimental: Genomic DNA was extracted with Puregene Kit A according to the manufacturer's instructions (Qiagen), and qPCR was performed using a 7300 Real-Time PCR System (Applied Biosystems) using Universal SYBR Green Supermix (BioRad). Primers for qPCR were designed using Primer3 software: […]
MaxGFP primers are specific for the maxGFP gene in the transposon. Standard curves were generated using genomic DNA of a H9 clone with a single insertion of transposon (“gold standard”) obtained by limiting dilution method. Copy number was calculated using the […] (Schmittgen, T. D. and Livak, K. J. (2008), incorporated in its entirety herein). Characterization of SBTS Integration Distribution.
Plates were incubated for 2-3 weeks, after which clonal populations were moved to larger plates and expanded. GFP expression was confirmed by flow cytometry. Relative RT-qPCR analysis was performed using DNA of 60 individual clones in order to determine transposon copy number.
First, a “gold standard” clone with a single copy of integrated transposon was generated by limiting dilution method. […] A trend of increasing average transposon copy number with increasing selection pressure was observed. […] Statistical difference was assessed by Student's t-test.
Sixty clones were generated by limiting dilution method, GFP expression confirmed by flow cytometry, genomic DNA isolated, and the number of GFP genes per haploid genome analyzed by RT-PCR. Most clones (˜65%) contained multiple copies of GFP.

[3] = tested on: cells transfected with GFP:SB; test: GFP expression in cells transfected with GFP:SB (SB100X DNA or RNA) under MTX; type: cell-based; details: cells transfected with 5 ug of GFP:SB; 50 uM and 100 uM MTX tested
Experimental: Cells were electroporated with SB100X (DNA or RNA) or transposons carrying genes for GFP, CARS, or GFP/mCherry/BFP. FIG. 20A relates to lymphocytes; FIG. 20B relates to single cells; FIG. 20C relates to live cells; FIG. 20D relates to GFP; FIG. 20E relates to a time-line.
As shown in the figure are several scattergrams of the cells that are transfected with GFP gene carrying transposons. Several samples of cells are transfected with DNA comprising a gene for GFP expression (2.5 ug and 5 ug), mcGFP only, and RNA (1 ug and 3 ug).
FIGS. 24A-24B relate to expression of GFP in cells transfected with GFP:SB. […] FIG. 24B relates to the experiment was performed using RNA, however, DNA has a higher efficiency for leading to expression of the protein.

H9 cells [4] = test: MTX selection and transgene persistence in H9 cells stably transfected with T3/GFP-T2A-DHFRdm transposon, flow cytometry; type: cell-based, human
Experimental: as §1, §2

[5] = 60 clones from population selected with 200 nM MTX

## CN(Cc1cnc2nc(N)nc(N)c2n1)c1ccc(C(=O)N[C@@H](CCC(=O)O)C(=O)O)cc1 [MTX, methotrexate]
H9 cells [1]; then 500 nM MTX additional week
  cells expressing triple transgenes: 38.5±1.0%
H9 cells [1]; then 1000 nM MTX additional week
  cells expressing triple transgenes: 53.1±0.3%
H9 cells [1]; during the second round of selection
  cell viability: ~70%
H9 cells [1]; two-step selection, two successive MTX selection rounds
  cells expressing three transgene products: 50%
H9 cells [2]; [5]
  average number of integration events in clones: 1.8 and 1.78±0.69
  clones containing multiple copies of GFP: ~65%
H9 cells [2]; cell population selected with 200 nM MTX, RT-qPCR
  average integration events (transposon copy number per human haploid genome): 2.1±0.45
[3]
  MTX concentration at which cells express GFP optimally: 50 µM
H9 cells [4]; 50 nM MTX selection
  decrease in mean GFP expression by 4 weeks post-MTX withdrawal: 28%
H9 cells [4]; 100 nM MTX selection
  decrease in mean GFP expression by 4 weeks post-MTX withdrawal: 27%
H9 cells [4]; 200 nM MTX for 2 weeks
  GFP+ population four weeks post-MTX withdrawal: 97%
H9 cells [4]; 200 nM MTX selection
  decrease in mean GFP expression by 4 weeks post-MTX withdrawal: 21%
H9 cells [4]; all populations (50, 100, 200 nM MTX for 2 weeks)
  GFP+ population four weeks post-MTX withdrawal: > 90%
H9 cells [4]; by 7 days post-selection, all conditions (50 to 200 nM MTX)
  GFP+ cells: > 94%
